{
  "source": "patent US11370822B2",
  "about": "“Self-assembling peptide for activating human mast cells” (The Governors of the University of Alberta, priority 2017, dated 2022)",
  "key": {"LAD2 cells [1]": {"system": "LAD2 cells", "assay": "β-hex release assay, co-culture with well insert (0.2 μm pore size filter)", "format": "cell-based, human", "settings": "30 min", "description": "To evaluate the immobilization effect of (RADA)4-GG-(PAMP-12) (SEQ ID NO: 2) in the matrices. As shown in FIG. 6 (A), 0.25×10^5 LAD2 cells in 100 μl HEPES buffer (10 mM, with 0.4% BSA, pH 7.4) were co-incubated with well inserts that contain 50 μl of self-assembling matrix (20% and 100% w/w of (RADA)4-GG-(PAMP-12) (SEQ ID NO: 2)) or PAMP-12 (SEQ ID NO: 3) solution in HEPES buffer (10 mM, with 0.4% BSA, pH 7.4) with the corresponding concentration (0.29 and 1.46 mM respectively). After 30 min incubation, inserts were removed, and the β-hex release was measured as described."}, "LAD2 cells [2]": {"system": "LAD2 cells", "assay": "β-hexosaminidase (β-hex) release assay, peptide solutions", "format": "cell-based, human", "settings": "30 min", "description": "LAD2 (Laboratory of Allergic Diseases 2) human mast cells were incubated in StemPro-34 SFM medium (Life Technologies, Rockville, Md.) supplemented with 2 mM L-glutamine, 100 I/ml penicillin, 50 μg/ml streptomycin, 100 ng/ml recombinant human SCF (Peprotech, Rocky Hill, N.J.). Cells were maintained at 0.1×10^6 cells/ml at 37° C. and 5% CO2. Cell suspensions were isolated via centrifugation (200 g, 5 min, at room temperature) and media was replaced every 3-7 days. For each well, 0.25×10^5 LAD2 cells were washed and resuspended in 90 μl HEPES buffer (10 mM, with 0.4% BSA, pH 7.4), and activated by adding 10 μl peptide solutions (PAMP-12 […], (RADA)4 (SEQ ID NO: 1) and (RADA)4-GG-(PAMP-12) (SEQ ID NO: 2)) in PBS (1×, pH 7.4) for 30 min at 37° C., the final concentrations of peptide are 0, 0.01, 0.1, 1, 10, 20, 50, 100 μM respectively. β-hex release was quantified through analysis of the hydrolysis of p-nitrophenyl N-acetyl-b-D-glucosamide (Sigma Aldrich, Oakville, ON, Canada) in 0.1 M sodium citrate buffer (pH 4.5) for both the supernatant and in total cell lysates solubilized with 0.01% Triton X-100 for 90 min at 37° C. The reaction was stopped by adding glycine buffer (pH 10.7). Read absorbance at 405 nm with reference filter at 620 nm. The percent-age of β-hex released into the supernatant was calculated by the β-hex contents of supernatant and cell lysate."}, "LAD2 cells [3]": {"system": "LAD2 cells", "assay": "Cell viability analysis using XTT assay", "quoted_text": "LAD2 cells were suspended in culture medium (50 μl, 1.0×10^6 cells/ml) and placed on top of 50 μl of hydrogel matrix or culture medium solution. After an 4 h or 24 h incubation, cell viability was measured using a 2,3-bis-(2-methoxy-4-nitro-5-sulfophenyl)-2H-tetrazolium-5-carboxanilide (XTT) proliferation kit (Roche Molecular Biochemicals, Indianapolis, Ind., USA), according to the manufacturer's supplied instructions. To facilitate a uniform distribution of color throughout the hydrogel matrix, 50 μl of DMSO was added into each well prior to analysis."}},
  "data": [
    {"smiles": "CC(=O)N[C@@H](CCCNC(=N)N)C(=O)N[C@@H](C)C(=O)N[C@@H](CC(=O)O)C(=O)N[C@@H](C)C(=O)N[C@@H](CCCNC(=N)N)C(=O)N[C@@H](C)C(=O)N[C@@H](CC(=O)O)C(=O)N[C@@H](C)C(=O)N[C@@H](CCCNC(=N)N)C(=O)N[C@@H](C)C(=O)N[C@@H](CC(=O)O)C(=O)N[C@@H](C)C(=O)N[C@@H](CCCNC(=N)N)C(=O)N[C@@H](C)C(=O)N[C@@H](CC(=O)O)C(=O)N[C@@H](C)C(=O)NCC(=O)NCC(=O)N[C@@H](Cc1ccccc1)C(=O)N[C@@H](CCCNC(=N)N)C(=O)N[C@@H](CCCCN)C(=O)N[C@@H](CCCCN)C(=O)N[C@@H](Cc1c[nH]c2ccccc12)C(=O)N[C@@H](CC(N)=O)C(=O)N[C@@H](CCCCN)C(=O)N[C@@H](Cc1c[nH]c2ccccc12)C(=O)N[C@@H](C)C(=O)N[C@@H](CC(C)C)C(=O)N[C@@H](CO)C(=O)N[C@@H](CCCNC(=N)N)C(N)=O", "note": "[(RADA)4-GG-(PAMP-12)]", "values": [
      {"measurement": "degranulation of LAD2 (β-hex release)", "setting": "LAD2 cells [1]; 0.5% w/v matrix with 20% w/w (RADA)4-GG-(PAMP-12) in insert", "result": "11.1±1.1", "unit": "%"},
      {"measurement": "degranulation of LAD2 (β-hex release)", "setting": "LAD2 cells [1]; matrix of 100% w/w (RADA)4-GG-(PAMP-12) in insert", "result": "59.6±3.1", "unit": "%"},
      {"measurement": "LAD2 degranulation (β-hex release)", "setting": "LAD2 cells [2]; peptide solutions, various concentrations, compared with PBS", "result": "induced significant degranulation"},
      {"measurement": "β-hex release (plateau)", "setting": "LAD2 cells [2]; solution free peptide, 10 μM", "result": "~75", "unit": "%"},
      {"measurement": "cytotoxicity to LAD2 cells (XTT)", "setting": "LAD2 cells [3]; PAMP-12 10 μM, 0.5% w/v hydrogel matrices (pure (RADA)4 or 20% w/w (RADA)4-GG-(PAMP-12)), 4 h or 24 h", "result": "not cytotoxic"},
      {"measurement": "effect on LAD2 proliferation (XTT)", "setting": "LAD2 cells [3]; same treatments, after 24 h incubation", "result": "no statistically significant effect"}
    ]}
  ]
}
